Measured values: patent US12258355B2, “Probes for imaging huntingtin protein” (CHDI Foundation, Inc., priority 2014, dated 2025)

Biological target: T1, Q46 protein aggregates (Homo sapiens, UniProt P42858)
T1 construct: fused on or other part: GST at the N-terminus, cut off with thrombin before the test to start aggregation; The wells held aggregated Q46 without GST
Experiment: Q46 radioligand binding assay (RBA)
Details: 10 nM ligand [3H3]MK-3328
Summary of the method: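 Aggregates from thrombin-cleaved GST-Q46 (16 h, 37° C) at 5 μM monomer-equivalent were pre-incubated 20 min at room temperature with compound (1 μM to 30 pM) in 150 mM NaCl, 50 mM Tris pH 8.0, then 60 min at 37° C with 10 nM [^3H3]MK-3328. Bound radioactivity was filtered and counted; IC50 came from a four-parameter global fit normalized to vehicle and 3 μM unlabelled MK-3328.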

T1 sequence (P42858 with tags, fused parts or gaps with the stated changes, form open): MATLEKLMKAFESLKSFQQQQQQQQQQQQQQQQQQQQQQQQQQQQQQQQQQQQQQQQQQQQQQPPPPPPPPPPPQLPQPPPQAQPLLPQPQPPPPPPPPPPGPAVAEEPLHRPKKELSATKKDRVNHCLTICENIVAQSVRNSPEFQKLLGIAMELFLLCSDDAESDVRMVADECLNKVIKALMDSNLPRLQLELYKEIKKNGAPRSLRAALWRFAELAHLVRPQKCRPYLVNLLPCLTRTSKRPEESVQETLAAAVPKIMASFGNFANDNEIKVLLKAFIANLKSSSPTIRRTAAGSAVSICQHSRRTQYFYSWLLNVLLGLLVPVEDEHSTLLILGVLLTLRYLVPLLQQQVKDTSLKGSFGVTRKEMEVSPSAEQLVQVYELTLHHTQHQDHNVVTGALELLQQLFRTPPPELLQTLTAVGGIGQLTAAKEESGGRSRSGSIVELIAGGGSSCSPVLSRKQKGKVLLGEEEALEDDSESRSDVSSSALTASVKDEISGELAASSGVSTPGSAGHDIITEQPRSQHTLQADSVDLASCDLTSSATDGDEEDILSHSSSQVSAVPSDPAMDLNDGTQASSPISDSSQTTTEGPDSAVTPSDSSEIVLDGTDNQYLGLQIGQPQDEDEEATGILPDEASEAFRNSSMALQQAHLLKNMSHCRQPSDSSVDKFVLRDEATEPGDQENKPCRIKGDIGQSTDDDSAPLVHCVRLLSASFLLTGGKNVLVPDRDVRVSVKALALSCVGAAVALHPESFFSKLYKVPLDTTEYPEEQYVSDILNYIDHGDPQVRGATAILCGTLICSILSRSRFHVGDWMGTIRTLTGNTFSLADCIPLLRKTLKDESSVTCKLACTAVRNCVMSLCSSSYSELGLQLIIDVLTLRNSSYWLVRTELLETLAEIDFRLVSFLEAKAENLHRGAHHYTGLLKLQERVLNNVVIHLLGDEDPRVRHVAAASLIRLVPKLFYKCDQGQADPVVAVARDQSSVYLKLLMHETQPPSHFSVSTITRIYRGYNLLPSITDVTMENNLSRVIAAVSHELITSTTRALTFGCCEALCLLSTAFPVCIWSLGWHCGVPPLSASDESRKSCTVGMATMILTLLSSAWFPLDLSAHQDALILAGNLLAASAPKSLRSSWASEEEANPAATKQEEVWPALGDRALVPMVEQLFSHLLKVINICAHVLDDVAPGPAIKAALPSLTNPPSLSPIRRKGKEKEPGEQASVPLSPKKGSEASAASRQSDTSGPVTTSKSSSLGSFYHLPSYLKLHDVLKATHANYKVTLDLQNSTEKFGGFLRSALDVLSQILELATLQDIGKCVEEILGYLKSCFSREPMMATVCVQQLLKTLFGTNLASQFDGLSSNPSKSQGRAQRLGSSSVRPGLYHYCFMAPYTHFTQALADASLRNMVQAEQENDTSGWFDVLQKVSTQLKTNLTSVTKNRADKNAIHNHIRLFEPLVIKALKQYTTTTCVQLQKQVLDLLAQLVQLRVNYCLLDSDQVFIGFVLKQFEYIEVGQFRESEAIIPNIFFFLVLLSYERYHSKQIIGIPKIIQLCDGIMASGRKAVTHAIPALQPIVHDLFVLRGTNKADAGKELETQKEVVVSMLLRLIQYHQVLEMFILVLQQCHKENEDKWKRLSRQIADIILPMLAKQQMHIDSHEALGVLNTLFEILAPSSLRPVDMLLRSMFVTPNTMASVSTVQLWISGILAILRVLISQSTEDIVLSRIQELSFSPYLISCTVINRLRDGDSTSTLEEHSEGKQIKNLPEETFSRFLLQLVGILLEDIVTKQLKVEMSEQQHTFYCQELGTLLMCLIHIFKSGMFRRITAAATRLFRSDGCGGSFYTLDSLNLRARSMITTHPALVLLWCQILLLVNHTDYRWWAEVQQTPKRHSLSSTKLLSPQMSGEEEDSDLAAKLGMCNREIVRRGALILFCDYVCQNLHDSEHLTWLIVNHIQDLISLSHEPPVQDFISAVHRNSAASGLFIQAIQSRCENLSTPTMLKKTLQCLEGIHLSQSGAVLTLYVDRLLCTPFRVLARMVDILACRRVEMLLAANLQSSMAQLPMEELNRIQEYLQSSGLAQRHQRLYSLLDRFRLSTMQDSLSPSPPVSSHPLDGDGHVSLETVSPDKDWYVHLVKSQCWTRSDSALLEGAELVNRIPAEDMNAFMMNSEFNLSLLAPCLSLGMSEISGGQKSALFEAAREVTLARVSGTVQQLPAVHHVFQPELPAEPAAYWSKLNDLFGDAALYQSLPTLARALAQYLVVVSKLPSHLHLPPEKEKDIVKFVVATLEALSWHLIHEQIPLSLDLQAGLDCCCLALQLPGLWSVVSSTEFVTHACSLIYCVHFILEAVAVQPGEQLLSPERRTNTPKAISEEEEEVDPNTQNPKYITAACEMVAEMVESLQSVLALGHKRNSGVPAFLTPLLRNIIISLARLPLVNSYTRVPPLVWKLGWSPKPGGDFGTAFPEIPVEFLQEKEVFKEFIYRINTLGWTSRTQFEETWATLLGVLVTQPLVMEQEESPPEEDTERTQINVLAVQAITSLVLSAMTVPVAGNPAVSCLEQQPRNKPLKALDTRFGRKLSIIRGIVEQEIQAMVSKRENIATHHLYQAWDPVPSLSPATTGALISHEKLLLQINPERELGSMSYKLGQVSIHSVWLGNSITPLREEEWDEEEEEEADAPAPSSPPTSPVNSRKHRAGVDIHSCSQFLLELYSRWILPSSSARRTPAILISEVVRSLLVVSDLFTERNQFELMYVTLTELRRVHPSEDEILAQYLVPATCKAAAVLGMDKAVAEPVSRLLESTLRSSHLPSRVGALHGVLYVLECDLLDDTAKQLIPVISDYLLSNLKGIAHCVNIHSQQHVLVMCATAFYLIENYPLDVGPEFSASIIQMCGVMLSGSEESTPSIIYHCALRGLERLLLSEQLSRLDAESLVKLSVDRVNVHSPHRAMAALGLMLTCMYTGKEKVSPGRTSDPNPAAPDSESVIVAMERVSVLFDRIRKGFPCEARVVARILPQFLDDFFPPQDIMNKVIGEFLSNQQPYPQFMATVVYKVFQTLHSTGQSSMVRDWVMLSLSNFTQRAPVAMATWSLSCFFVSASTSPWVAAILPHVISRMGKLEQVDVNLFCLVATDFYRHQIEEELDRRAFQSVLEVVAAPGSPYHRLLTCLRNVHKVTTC

Row | IC50 | SMILES
1 | < 100 nM | COc1ccc(/C=C/C(=O)Nc2ccc3oc(-c4cccnc4)nc3c2)cc1 [(2E)-3-(4-methoxyphenyl)-N-[2-(pyridin-3-yl)-1,3-benzoxazol-5-yl]prop-2-enamide]
2 | < 100 nM | c1cncc(COc2ccc3oc(-c4cccnc4)nc3c2)c1 [2-(pyridin-3-yl)-5-(pyridin-3-ylmethoxy)-1,3-benzoxazole]
3 | < 100 nM | Cc1cc(C(=O)Nc2ccc3oc(-c4cccnc4)nc3c2)ccn1 [2-methyl-N-[2-(pyridin-3-yl)-1,3-benzoxazol-5-yl]pyridine-4-carboxamide]
4 | < 100 nM | N#Cc1cnccc1-c1cc2cc(OCc3cn[nH]c3)ccc2o1 [4-[5-(1H-pyrazol-4-ylmethoxy)-1-benzofuran-2-yl]pyridine-3-carbonitrile]
5 | < 100 nM | COc1ccc(COc2ccc3oc(-c4ccc(C#N)cc4)nc3c2)nc1 [4-{5-[(5-methoxypyridin-2-yl)methoxy]-1,3-benzoxazol-2-yl]benzonitrile]
6 | < 100 nM | COc1ccc(C(=O)Nc2cnc3oc(-c4cccc(C)c4)nc3c2)cc1 [4-methoxy-N-[2-(3-methylphenyl)[1,3]oxazolo[5,4-b]pyridin-6-yl]benzamide]
7 | < 100 nM | COc1ccc(COc2ccc3oc(-c4ccc5ccccc5n4)nc3c2)nc1 [2-{5-[(5-methoxypyridin-2-yl)methoxy]-1,3-benzoxazol-2-yl}quinoline]
8 | < 100 nM | O=C(Nc1ccc2oc(-c3cccnc3)nc2c1)c1cc2ccccc2o1 [N-[2-(pyridin-3-yl)-1,3-benzoxazol-5-yl]-1-benzofuran-2-carboxamide]
9 | 100 to 500 nM | Cn1cc(-c2nc3cc(OCc4ccc(O)cn4)ccc3o2)cn1 [6-({[2-(1-methyl-1H-pyrazol-4-yl)-1,3-benzoxazol-5-yl]oxy}methyl)pyridin-3-ol]
10 | 100 to 500 nM | Cn1cc(COc2ccc3oc(-c4cccnc4)nc3c2)ncc1=O [1-methyl-5-({[2-(pyridin-3-yl)-1,3-benzoxazol-5-yl]oxy}methyl)-1,2-dihydropyrazin-2-one]
11 | < 100 nM | COc1ccc(COc2ccc3oc(-c4cccnc4)nc3c2)nc1 [5-[(5-methoxypyridin-2-yl)methoxy]-2-(pyridin-3-yl)-1,3-benzoxazole]
12 | < 100 nM | O=C(Nc1ccc2oc(-c3cccnc3)nc2c1)c1ccc2occc2c1 [N-[2-(pyridin-3-yl)-1,3-benzoxazol-5-yl]-1-benzofuran-5-carboxamide]
13 | < 100 nM | O=C(Nc1ccc2oc(-c3cccnc3)nc2c1)OCc1ccc(O)cn1 [(5-hydroxypyridin-2-yl)methyl N-[2-(pyridin-3-yl)-1,3-benzoxazol-5-yl]carbamate]
14 | < 100 nM | COc1ccc(COc2ccc3oc(-c4cnccn4)nc3c2)nc1 [5-[(5-methoxypyridin-2-yl)methoxy]-2-(pyrazin-2-yl)-1,3-benzoxazole]
15 | < 100 nM | COc1cncc(NC(=O)c2ccc3oc(-c4cccnc4)nc3c2)c1 [N-(5-methoxypyridin-3-yl)-2-(pyridin-3-yl)-1,3-benzoxazole-5-carboxamide]
16 | > 50 nM | COc1ccc(C(Nc2cnc3oc(-c4cccnc4)nc3c2)C(F)(F)F)cc1 (centres unmarked) [2-(pyridin-3-yl)-N-[2,2,2-trifluoro-1-(4-methoxyphenyl)ethyl]-[1,3]oxazolo[5,4-b]pyridin-6-amine]
17 | < 100 nM | CNc1ccc(-c2nc3cc(OCc4ccc(OC)cn4)ccc3o2)cn1 [5-{5-[(5-methoxypyridin-2-yl)methoxy]-1,3-benzoxazol-2-yl}-N-methylpyridin-2-amine]
18 | < 100 nM | COc1ccc2c(c1)CN(c1cnc3oc(-c4cccnc4)nc3c1)C2=O [5-methoxy-2-[2-(pyridin-3-yl)-[1,3]oxazolo[5,4-b]pyridin-6-yl]-2,3-dihydro-1H-isoindol-1-one]
19 | < 100 nM | c1cnc(Nc2ccc3oc(-c4cccnc4)nc3c2)nc1 [2-(pyridin-3-yl)-N-(pyrimidin-2-yl)-1,3-benzoxazol-5-amine]
20 | < 100 nM | COc1ccc(COc2cnc3oc(-c4ccc(=O)n(C)n4)nc3c2)nc1 [6-{6-[(5-methoxypyridin-2-yl)methoxy]-[1,3]oxazolo[5,4-b]pyridin-2-yl}-2-methyl-2,3-dihydropyridazin-3-one]

Row | IC50 | SMILES
21 | < 100 nM | COc1ccc(COc2ccc3oc(-c4ccnnc4)nc3c2)nc1 [5-[(5-methoxypyridin-2-yl)methoxy]-2-(pyridazin-4-yl)-1,3-benzoxazole]
22 | < 100 nM | O=C(Nc1ccc2oc(-c3cccnc3)nc2c1)C1Cc2ccccc2O1 (centres unmarked) [N-[2-(pyridin-3-yl)-1,3-benzoxazol-5-yl]-2,3-dihydro-1-benzofuran-2-carboxamide]
23 | < 100 nM | COc1ccc(COc2ccc3oc(-c4cccnn4)nc3c2)nc1 [5-[(5-methoxypyridin-2-yl)methoxy]-2-(pyridazin-3-yl)-1,3-benzoxazole]
24 | 100 to 500 nM | COc1ccc(NCc2ccc3oc(-c4cccnc4)nc3c2)nc1 [5-methoxy-N-{[2-(pyridin-3-yl)-1,3-benzoxazol-5-yl]methyl}pyridin-2-amine]
25 | < 100 nM | COc1ccc(-c2ccc3oc(-c4cccnc4)nc3c2)nn1 [5-(6-methoxypyridazin-3-yl)-2-(pyridin-3-yl)-1,3-benzoxazole]
26 | < 100 nM | Cn1nc(-c2nc3cc(OCc4ccc(OCCF)cn4)cnc3o2)ccc1=O [6-(6-{[5-(2-fluoroethoxy)pyridin-2-yl]methoxy}-[1,3]oxazolo[5,4-b]pyridin-2-yl)-2-methyl-2,3-dihydropyridazin-3-one]
27 | < 100 nM | COc1ccc(C#Cc2cnc3oc(-c4cccnc4)nc3c2)cc1 [3-{6-[2-(4-methoxyphenyl)ethynyl]-[1,3]oxazolo[5,4-b]pyridin-2-yl}pyridine]
28 | < 100 nM | COc1ccc(COc2cnc3oc(-c4cccnc4)nc3c2)[n+]([O-])c1 [5-methoxy-2-({[2-(pyridin-3-yl)-[1,3]oxazolo[5,4-b]pyridin-6-yl]oxy}methyl)pyridin-1-ium-1-olate]
29 | < 100 nM | COc1cccc(COc2ccc3oc(-c4cccnc4)nc3c2)c1 [5-[(3-methoxyphenyl)methoxy]-2-(pyridin-3-yl)-1,3-benzoxazole]
30 | < 100 nM | COc1ccc2c(c1)CN(c1ccc3oc(-c4cccnc4)nc3c1)C2=O [5-methoxy-2-[2-(pyridin-3-yl)-1,3-benzoxazol-5-yl]-2,3-dihydro-1H-isoindol-1-one]
31 | < 100 nM | CNCc1cncc(-c2nc3cc(OCc4ccc(OC)cn4)ccc3o2)c1 [[(5-{5-[(5-methoxypyridin-2-yl)methoxy]-1,3-benzoxazol-2-yl}pyridin-3-yl)methyl](methyl)amine]
32 | < 100 nM | c1cncc(-c2nc3cc(OCc4ccc(OCCN5CCOCC5)cn4)ccc3o2)c1 [5-({5-[2-(morpholin-4-yl)ethoxy]pyridin-2-yl}methoxy)-2-(pyridin-3-yl)-1,3-benzoxazole]
33 | < 100 nM | COc1ccc(COc2ccc3oc(-c4cccc(OCc5ccccc5)c4)nc3c2)nc1 [2-[3-(benzyloxy)phenyl]-5-[(5-methoxypyridin-2-yl)methoxy]-1,3-benzoxazole]
34 | < 100 nM | COc1ccc(COc2ccc3oc(-c4cccc(CN(C)C)c4)nc3c2)nc1 [[(3-{5-[(5-methoxypyridin-2-yl)methoxy]-1,3-benzoxazol-2-yl}phenyl)methyl]dimethylamine]
35 | < 100 nM | COc1ccc(COc2ccc3oc(N4Cc5cccnc5C4)nc3c2)nc1 [5-[(5-methoxypyridin-2-yl)methoxy]-2-{5H,6H,7H-pyrrolo[3,4-b]pyridin-6-yl}-1,3-benzoxazole]
36 | 100 to 500 nM | O=C(Nc1ccc2oc(-c3cccnc3)nc2c1)c1cc(O)ccn1 [4-hydroxy-N-[2-(pyridin-3-yl)-1,3-benzoxazol-5-yl]pyridine-2-carboxamide]
37 | < 100 nM | Cn1cc(COc2ccc3oc(-c4ccncc4C#N)cc3c2)cn1 [4-{5-[(1-methyl-1H-pyrazol-4-yl)methoxy]-1-benzofuran-2-yl}pyridine-3-carbonitrile]
38 | < 100 nM | COc1ccc(COc2cnc3oc(-c4cccnc4)nc3c2)cn1 [3-{6-[(6-methoxypyridin-3-yl)methoxy]-[1,3]oxazolo[5,4-b]pyridin-2-yl}pyridine]
39 | < 100 nM | CNC(=O)c1ccc(-c2nc3cc(OCc4ccc(OC)cn4)ccc3o2)c[n+]1[O-] [5-{5-[(5-methoxypyridin-2-yl)methoxy]-1,3-benzoxazol-2-yl}-2-(methylcarbamoyl)pyridin-1-ium-1-olate]
40 | < 100 nM | CNC(=O)c1ccc(-c2nc3cc(OCc4ccc(OC)cn4)cnc3o2)cn1 [5-{6-[(5-methoxypyridin-2-yl)methoxy]-[1,3]oxazolo[5,4-b]pyridin-2-yl}-N-methylpyridine-2-carboxamide]

Row | SMILES | IC50
41 | COCCn1cc(COc2ccc3oc(-c4ccncc4C#N)cc3c2)cn1 [4-(5-{[1-(2-methoxyethyl)-1H-pyrazol-4-yl]methoxy}-1-benzofuran-2-yl)pyridine-3-carbonitrile] | < 100 nM
